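Cells were grown in 96-well plates and exposed to each compound for 48 hours at five concentrations; endpoints were interpolated linearly between bracketing concentrations, or set to the highest concentration if not reached. At the GI50, growth is halved.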 Active and inactive are the calls of the source. No stated cut-off is given here; in the data, active = GI50 up to about 1.1 µM and inactive = higher.
Tests used:
Test in all cases: DTP human tumour cell line panel, 48 h
A498 = system: A498
ACHN = system: ACHN
HCT-116 = system: HCT-116
HCT-15 = system: HCT-15
HOP-62 = system: HOP-62
HT-29 = system: HT-29
IGROV-1 = system: IGROV-1
LOX IMVI = system: LOX IMVI
M14 = system: M14
NCI-H522 = system: NCI-H522
OVCAR-3 = system: OVCAR-3
OVCAR-5 = system: OVCAR-5
OVCAR-8 = system: OVCAR-8
SF-268 = system: SF-268
SK-MEL-28 = system: SK-MEL-28
SK-MEL-2 = system: SK-MEL-2
SN12C = system: SN12C
SNB-19 = system: SNB-19

Structure (SMILES)	GI50 (A498)	GI50 (ACHN)	GI50 (HCT-116)	GI50 (HCT-15) [µM]	GI50 (HOP-62)	GI50 (HT-29)	GI50 (IGROV-1)	GI50 (LOX IMVI)	GI50 (M14)	GI50 (NCI-H522)	GI50 (OVCAR-3)	GI50 (OVCAR-5)	GI50 (OVCAR-8)	GI50 (SF-268)	GI50 (SK-MEL-28)	GI50 (SK-MEL-2)	GI50 (SN12C)	GI50 (SNB-19)
Cc1nc2c(s/c(=N\N)n2-c2ccccc2)c(=O)[nH]1	> 100 µM (inactive)	> 100 µM (inactive)	> 100 µM (inactive)	> 100	> 100 µM (inactive)	> 100 µM (inactive)	> 100 µM (inactive)	> 100 µM (inactive)	> 100 µM (inactive)	> 100 µM (inactive)	> 100 µM (inactive)	> 100 µM (inactive)	> 100 µM (inactive)	> 100 µM (inactive)	> 100 µM (inactive)	> 100 µM (inactive)	> 100 µM (inactive)	> 100 µM (inactive)
CCCN1CN(C(C(=O)N[C@@H]2C(=O)N3C(C(=O)O)=C(C)CSC23)c2ccccc2)CSC1=S (stereo not given in full)	> 100 µM (inactive)	> 100 µM (inactive)	> 100 µM (inactive)	42	> 100 µM (inactive)	> 100 µM (inactive)	> 100 µM (inactive)	47.4 µM (inactive)	> 100 µM (inactive)	23 µM (inactive)	68.1 µM (inactive)	> 100 µM (inactive)	> 100 µM (inactive)	> 100 µM (inactive)	> 100 µM (inactive)	> 100 µM (inactive)	> 100 µM (inactive)	> 100 µM (inactive)
CCCCC(C)/C=C/C(O)=C1\C(=O)O/C(=C\C(=O)O)C1=O (stereo not given)	> 100 µM (inactive)	> 100 µM (inactive)	> 100 µM (inactive)	> 100	> 100 µM (inactive)	> 100 µM (inactive)	> 100 µM (inactive)	> 100 µM (inactive)	> 100 µM (inactive)		> 100 µM (inactive)	> 100 µM (inactive)	> 100 µM (inactive)		> 100 µM (inactive)	> 100 µM (inactive)	> 100 µM (inactive)	> 100 µM (inactive)
O=C(NO)C(=O)Nc1ccc(Cl)cc1[N+](=O)[O-]	> 100 µM (inactive)	> 100 µM (inactive)	> 100 µM (inactive)	> 100	> 100 µM (inactive)	> 100 µM (inactive)	> 100 µM (inactive)	51.9 µM (inactive)	> 100 µM (inactive)	> 100 µM (inactive)	> 100 µM (inactive)	> 100 µM (inactive)	> 100 µM (inactive)	> 100 µM (inactive)	> 100 µM (inactive)	> 100 µM (inactive)	> 100 µM (inactive)	> 100 µM (inactive)
CC(C)(O)[C@H](CCO)O[Si](c1ccccc1)(c1ccccc1)C(C)(C)C	16.5 µM (inactive)	5.94 µM (inactive)	4.9 µM (inactive)	8.22		11.1 µM (inactive)	12.2 µM (inactive)	11.1 µM (inactive)	12.2 µM (inactive)	6.67 µM (inactive)	11.1 µM (inactive)	14.9 µM (inactive)	10.9 µM (inactive)	10.5 µM (inactive)	15.2 µM (inactive)	15.1 µM (inactive)	4.11 µM (inactive)	6.01 µM (inactive)
COc1ccc2[nH]c3c(C)c4cc[n+](COC(=O)c5ccccc5)cc4c(C)c3c2c1	1.11 µM (active)	0.101 µM (active)	0.0378 µM (active)		2.66 µM (inactive)	0.117 µM (active)	0.158 µM (active)	0.21 µM (active)	0.641 µM (active)	0.391 µM (active)	1.48 µM (inactive)	0.879 µM (active)	0.0851 µM (active)	0.286 µM (active)	1.31 µM (inactive)		0.197 µM (active)	0.713 µM (active)
O=c1c2ccccc2nc(-c2ccccc2)n1NC(=S)Nc1ccccc1	> 100 µM (inactive)	> 100 µM (inactive)	> 100 µM (inactive)	> 100	> 100 µM (inactive)	> 100 µM (inactive)	> 100 µM (inactive)	91 µM (inactive)	> 100 µM (inactive)	> 100 µM (inactive)		> 100 µM (inactive)	> 100 µM (inactive)	> 100 µM (inactive)	34.8 µM (inactive)	> 100 µM (inactive)	> 100 µM (inactive)	
Cn1c(=O)n(C2(C)C[Se]C2)c2ccccc21	> 100 µM (inactive)	> 100 µM (inactive)	> 100 µM (inactive)	> 100	> 100 µM (inactive)	> 100 µM (inactive)	> 100 µM (inactive)	> 100 µM (inactive)	> 100 µM (inactive)	> 100 µM (inactive)		> 100 µM (inactive)	> 100 µM (inactive)	> 100 µM (inactive)	> 100 µM (inactive)	> 100 µM (inactive)	> 100 µM (inactive)	> 100 µM (inactive)
CCOC(=O)C(C(=O)OCC)P(=S)(S)c1ccccc1 (stereo not given)	> 100 µM (inactive)	> 100 µM (inactive)			> 100 µM (inactive)	> 100 µM (inactive)	> 100 µM (inactive)	> 100 µM (inactive)		> 100 µM (inactive)		> 100 µM (inactive)	> 100 µM (inactive)	> 100 µM (inactive)	> 100 µM (inactive)	> 100 µM (inactive)	> 100 µM (inactive)	> 100 µM (inactive)
